According to patent publication US10308644B2, “Heterocyclic compounds as immunomodulators” (Incyte Corporation, priority 2016, dated 2019):

These compounds were tested against PD-1/PD-L1 (Homo sapiens (Human), UniProt Q9NZQ7) (assay: PD-1/PD-L1 Homogeneous Time-Resolved Fluorescence (HTRF) Binding Assay). Conditions: recombinant human PD-1 (3 nM) and PD-L1 (10 nM), 25° C., PBS pH 7.4.
Experimental: Example A. PD-1/PD-L1 Homogeneous Time-Resolved Fluorescence (HTRF) Binding Assay
The assays were conducted in a standard black 384-well polystyrene plate with a final volume of 20 μL. Inhibitors were first serially diluted in DMSO and then added to the plate wells before the addition of other reaction components. The final concentration of DMSO in the assay was 1%. The assays were carried out at 25° C. in the PBS buffer (pH 7.4) with 0.05% Tween-20 and 0.1% BSA. Recombinant human PD-L1 protein (19-238) with a His-tag at the C-terminus was purchased from AcroBiosystems (PD1-H5229). Recombinant human PD-1 protein (25-167) with Fc tag at the C-terminus was also purchased from AcroBiosystems (PD1-H5257). PD-L1 and PD-1 proteins were diluted in the assay buffer and 10 μL was added to the plate well. Plates were centrifuged and proteins were preincubated with inhibitors for 40 minutes. The incubation was followed by the addition of 10 μL of HTRF detection buffer supplemented with Europium cryptate-labeled anti-human IgG (PerkinElmer-AD0212) specific for Fc and anti-His antibody conjugated to SureLight®-Allophycocyanin (APC, PerkinElmer-AD0059H). After centrifugation, the plate was incubated at 25° C. for 60 min. before reading on a PHERAstar FS plate reader (665 nm/620 nm ratio). Final concentrations in the assay were—3 nM PD1, 10 nM PD-L1, 1 nM europium anti-human IgG and 20 nM anti-His-Allophycocyanin. IC50 determination was performed by fitting the curve of percent control activity versus the log of the inhibitor concentration using the GraphPad Prism 5.0 software.

Sequence of PD-1/PD-L1 (Q9NZQ7 19-238): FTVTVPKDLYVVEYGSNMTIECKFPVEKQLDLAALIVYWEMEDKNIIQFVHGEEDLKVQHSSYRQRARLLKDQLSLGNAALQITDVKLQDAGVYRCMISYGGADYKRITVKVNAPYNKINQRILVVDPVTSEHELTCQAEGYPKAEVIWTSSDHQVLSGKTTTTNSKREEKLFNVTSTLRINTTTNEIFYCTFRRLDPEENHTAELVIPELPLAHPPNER

Q: Cc1c(Nc2nccc3cc(CN4CC[C@@H](O)C4)cnc23)cccc1-c1cccc(-c2nc3cc(CNCCC(=O)O)cc(C#N)c3o2)c1C [Example 101, (R)-3-((7-cyano-2-(3′-(3-((3-hydroxypyrrolidin-1-yl)methyl)-1,7-naphthyridin-8-ylamino)-2,2′-dimethylbiphenyl-3-yl)benzo[d]oxazol-5-yl)methylamino)propanoic acid] was tested. Which IC50 did it give?
A: ≤ 10 nM

Q: Cc1c(-c2nc3c(o2)CN(C(=O)CN2CCN(C)CC2)C3)cccc1-c1cccc(-c2nc3cc(CN4CC[C@@](C)(C(=O)O)C4)cc(C#N)c3o2)c1C [Example 254, (R)-1-((7-cyano-2-(2,2′-dimethyl-3′-(5-(2-(4-methylpiperazin-1-yl)acetyl)-5,6-dihydro-4H-pyrrolo[3,4-d]oxazol-2-yl)-[1,1′-biphenyl]-3-yl)benzo[d]oxazol-5-yl)methyl)-3-methylpyrrolidine-3-carboxylic acid] was tested. Which IC50 did it give?
A: ≤ 10 nM

Q: How did the IC50 turn out when Cc1c(Nc2ncnc3cc(CN4CC[C@@H](O)C4)cnc23)cccc1-c1cccc(-c2nc3cc(CN4CCC(C(=O)O)CC4)cc(C#N)c3o2)c1C [Example 207, (R)-1-((7-cyano-2-(3′-(7-((3-hydroxypyrrolidin-1-yl)methyl)pyrido [3,2-d]pyrimidin-4-ylamino)-2,2′-dimethylbiphenyl-3-yl)benzo[d]oxazol-5-yl)methyl)piperidine-4-carboxylic acid] was run?
A: ≤ 10 nM

Q: How did the IC50 turn out when CNC(=O)[C@@H]1CCN(Cc2cc(C#N)c3oc(-c4cccc(-c5cccc(-n6cc7c(n6)CN(C(C)C)CC7)c5Cl)c4C)nc3c2)C1 [Example 103, (R)-1-((2-(2′-chloro-3′-(6-isopropyl-4,5,6,7-tetrahydro-2H-pyrazolo[3,4-c]pyridin-2-yl)-2-methylbiphenyl-3-yl)-7-cyanobenzo[d]oxazol-5-yl)methyl)-N-methylpyrrolidine-3-carboxamide] was run?
A: ≤ 10 nM

Q: How did the IC50 turn out when Cc1c(Nc2nccc3cc(CN[C@@H](C)CO)cnc23)cccc1-c1cccc(-c2nc3cc(CN4CCC(C(=O)O)CC4)cc(C#N)c3o2)c1C [Example 201, (S)-1-((7-cyano-2-(3′-(3-((1-hydroxypropan-2-ylamino)methyl)-1,7-naphthyridin-8-ylamino)-2,2′-dimethylbiphenyl-3-yl)benzo[d]oxazol-5-yl)methyl)piperidine-4-carboxylic acid] was run?
A: ≤ 10 nM

Q: How did the IC50 turn out when Cc1c(Nc2nccc3cc(CN4CCC(C(=O)O)CC4)cnc23)cccc1-c1cccc(-c2nc3cc(CN[C@@H](C)CO)cc(C#N)c3o2)c1C [Example 213, (S)-1-((8-(3′-(7-cyano-5-((1-hydroxypropan-2-ylamino)methyl)benzo[d]oxazol-2-yl)-2,2′-dimethylbiphenyl-3-ylamino)1,7-naphthyridin-3-yl)methyl)piperidine-4-carboxylic acid] was run?
A: ≤ 10 nM

Q: How did the IC50 turn out when Cc1c(-c2nc3cc(CN4CC[C@@H](C(=O)O)C4)cc(C#N)c3o2)cccc1-c1cccc(-c2nc3c(s2)CN(CCO)CC3)c1C [Example 65, (R)-1-((7-cyano-2-(3′-(5-(2-hydroxyethyl)-4,5,6,7-tetrahydrothiazolo[5,4-c]pyridin-2-yl)-2,2′-dimethyl-[1,1′-biphenyl]-3-yl)benzo[d]oxazol-5-yl)methyl)pyrrolidine-3-carboxylic acid] was run?
A: ≤ 10 nM

Q: For Cc1c(Nc2nccc3cc(CN4CC[C@H](O)C4)cnc23)cccc1-c1cccc(-c2nc3cc(CN4CCC[C@H]4C(=O)O)cc(C#N)c3o2)c1C [Example 35, (S)-1-((7-cyano-2-(3′-(3-(((S)-3-hydroxypyrrolidin-1-yl)methyl)-1,7-naphthyridin-8-ylamino)-2,2′-dimethylbiphenyl-3-yl)benzo[d]oxazol-5-yl)methyl)pyrrolidine-2-carboxylic acid], which IC50 is on record?
A: ≤ 10 nM

Q: How did the IC50 turn out when CCN(C)CC(=O)N1Cc2nc(-c3cccc(-c4cccc(-c5nc6cc(CN7CC8(C(=O)O)CC7C8)cc(C#N)c6o5)c4C)c3C)oc2C1 [Example 242, 2-((7-cyano-2-(3′-(5-(N-ethyl-N-methylglycyl)-5,6-dihydro-4H-pyrrolo[3,4-d]oxazol-2-yl)-2,2′-dimethyl-[1,1′-biphenyl]-3-yl)benzo[d]oxazol-5-yl)methyl)-2-azabicyclo[2.1.1]hexane-4-carboxylic acid] was run?
A: ≤ 10 nM

Q: For Cc1c(Nc2ncnc3cc(CNC[C@H](C)O)cnc23)cccc1-c1cccc(-c2nc3cc(CN4CC[C@@](C)(C(=O)O)C4)cc(C#N)c3o2)c1C [Example 208, (R)-1-((7-cyano-2-(3′-(7-(((S)-2-hydroxypropylamino)methyl)pyrido[3,2-d]pyrimidin-4-ylamino)-2,2′-dimethylbiphenyl-3-yl)benzo[d]oxazol-5-yl)methyl)-3-methylpyrrolidine-3-carboxylic acid], which IC50 is on record?
A: ≤ 10 nM

Q: How did the IC50 turn out when Cc1c(Nc2nccc3cc(CN4CC[C@@H](O)C4)cnc23)cccc1-c1cccc(-c2nc3cc(CN4CC[C@H](CC(=O)O)C4)cc(C#N)c3o2)c1C [Example 173, 2-((R)-1-((7-cyano-2-(3′-(3-(((R)-3-hydroxypyrrolidin-1-yl)methyl)-1,7-naphthyridin-8-ylamino)-2,2′-dimethylbiphenyl-3-yl)benzo[d]oxazol-5-yl)methyl)pyrrolidin-3-yl)acetic acid] was run?
A: ≤ 10 nM

Q: Which IC50 does the source give for Cc1c(-c2nc3cc(CN4CC[C@H](O)C4)cc(Cl)c3o2)cccc1-c1cccc(-c2nc3cc(CN4CC[C@H](C(=O)O)C4)cc(Cl)c3o2)c1C [Example 10, (S)-1-((7-chloro-2-(3′-(7-chloro-5-(((S)-3-hydroxypyrrolidin-1-yl)methyl)benzo[d]oxazol-2-yl)-2,2′-dimethylbiphenyl-3-yl)benzo[d]oxazol-5-yl)methyl)pyrrolidine-3-carboxylic acid] here?
A: ≤ 10 nM

Q: How did the IC50 turn out when Cc1c(Nc2nccc3cc(CN4CC[C@@H](O)C4)cnc23)cccc1-c1cccc(-c2nc3cc(CN4CC5(C(=O)O)CC4C5)cc(C#N)c3o2)c1C [Example 178, (R)-2-((7-cyano-2-(3′-(3-((3-hydroxypyrrolidin-1-yl)methyl)-1,7-naphthyridin-8-ylamino)-2,2′-dimethylbiphenyl-3-yl)benzo[d]oxazol-5-yl)methyl)-2-aza bicyclo[2.1.1]hexane-4-carboxylic acid] was run?
A: ≤ 10 nM

Q: How did the IC50 turn out when Cc1c(-c2nc3cc(CN4CC[C@@H](C(=O)O)C4)cc(Cl)c3o2)cccc1-c1cccc(-c2nc3c(s2)CNCC3)c1C [Example 70, (R)-1-((7-chloro-2-(2,2′-dimethyl-3′-(4,5,6,7-tetrahydrothiazolo[5,4-c]pyridin-2-yl)-[1,1′-biphenyl]-3-yl)benzo[d]oxazol-5-yl)methyl)pyrrolidine-3-carboxylic acid] was run?
A: ≤ 10 nM

Q: Which IC50 does the source give for Cc1c(NC(=O)c2nc3c(n2C)CCN(C[C@H](C)O)C3)cccc1-c1cccc(-c2nc3cc(CN4CC[C@H](C(=O)O)C4)cc(C#N)c3o2)c1C [Example 41, (S)-1-((7-cyano-2-(3′-(5-((S)-2-hydroxypropyl)-1-methyl-4,5,6,7-tetrahydro-1H-imidazo[4,5-c]pyridine-2-carboxamido)-2,2′-dimethylbiphenyl-3-yl)benzo[d]oxazol-5-yl)methyl)pyrrolidine-3-carboxylic acid] here?
A: ≤ 10 nM

Q: For Cc1c(-c2nc3cc(CN4CC[C@@H](C(=O)O)C4)cc(Cl)c3o2)cccc1-c1cccc(N2CCC(NCC3(CO)CCC3)CC2)c1Cl [Example 46, (R)-1-((7-chloro-2-(2′-chloro-3′-(4-((1-(hydroxymethyl)cyclobutyl)methylamino)piperidin-1-yl)-2-methylbiphenyl-3-yl)benzo[d]oxazol-5-yl)methyl)pyrrolidine-3-carboxylic acid], which IC50 is on record?
A: ≤ 10 nM

Q: For Cc1c(-c2nc3cc(CN4CC[C@@](C)(C(=O)O)C4)cc(C#N)c3o2)cccc1-c1cccc(-c2nc3c(s2)CN(C(=O)CN(C)CCO)C3)c1C [Example 224, (R)-1-((7-cyano-2-(3′-(5-(2-((2-hydroxyethyl) (methyl)amino)acetyl)-5,6-dihydro-4H-pyrrolo[3,4-d]thiazol-2-yl)-2,2′-dimethylbiphenyl-3-yl)benzo[d]oxazol-5-yl)methyl)-3-methylpyrrolidine-3-carboxylic acid], which IC50 is on record?
A: ≤ 10 nM

Q: Which IC50 does the source give for Cc1c(-c2nc3cc(CN4CC[C@@](C)(C(=O)O)C4)cc(C#N)c3o2)cccc1-c1cccc(-c2nc3c(s2)CN(C(=O)CN2CC(O)C2)C3)c1C [Example 227, (R)-1-((7-cyano-2-(3′-(5-(2-(3-hydroxyazetidin-1-yl)acetyl)-5,6-dihydro-4H-pyrrolo[3,4-d]thiazol-2-yl)-2,2′-dimethylbiphenyl-3-yl)benzo[d]oxazol-5-yl)methyl)-3-methylpyrrolidine-3-carboxylic acid] here?
A: ≤ 10 nM

Q: For Cc1c(Nc2nccc3cc(CN4CC[C@H](O)C4)cnc23)cccc1-c1cccc(-c2nc3cc(CN4CC[C@@H](C(=O)O)C4)cc(C#N)c3o2)c1C [Example 26, (R)-1-((7-cyano-2-(3′-(3-(((S)-3-hydroxypyrrolidin-1-yl)methyl)-1,7-naphthyridin-8-ylamino)-2,2′-dimethylbiphenyl-3-yl)benzo[d]oxazol-5-yl)methyl)pyrrolidine-3-carboxylic acid], which IC50 is on record?
A: ≤ 10 nM
